Data reported in patent US20230111310A1, “CARBOXYLIC ACID DERIVATIVE-SUBSTITUTED IMINO ARYL COMPOUND, PREPARATION METHOD THEREFOR, HERBICIDAL COMPOSITION AND USE THEREOF” (Qingdao Kingagroot Chemical Compound Co., Ltd., priority 2020, published 2023).

Key:
Test in all cases: Weeding effect in post-emergence stage
Format in all cases: in vivo
Abutilon theophrasti = conditions: for Weeding effect in post-emergence stage, Abutilon theophrasti (level): fresh weight control rate level; for Weeding effect in post-emergence stage, Abutilon theophrasti: level of fresh weight growth control rate
Outline: (§1)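 Post-emergence spray tower; 2-3 leaf plants (2 wk after sowing, soil pots, greenhouse). Formulation: acetone, Tween 80, methyl oleate EC 1.5 liter/ha as synergist, water. Rates 500–7.5 g/ha. Growth control rate read at 3 wk; n=3, averaged.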

Setaria viridis = conditions: for Weeding effect in post-emergence stage, Setaria viridis (level): fresh weight control rate level; for Weeding effect in post-emergence stage, Setaria viridis: level of fresh weight growth control rate
Outline: as §1

Alopecurus japonicus = conditions: for Weeding effect in post-emergence stage, Alopecurus japonicus (level): fresh weight control rate level; for Weeding effect in post-emergence stage, Alopecurus japonicus: level of fresh weight growth control rate
Outline: as §1

Eleusine indica = conditions: for Weeding effect in post-emergence stage, Eleusine indica (level): fresh weight control rate level; for Weeding effect in post-emergence stage, Eleusine indica: level of fresh weight growth control rate
Outline: as §1

Digitaria sanguinalis = conditions: for Weeding effect in post-emergence stage, Digitaria sanguinalis (level): fresh weight control rate level; for Weeding effect in post-emergence stage, Digitaria sanguinalis: level of fresh weight growth control rate
Outline: as §1

Echinochloa crusgalli = conditions: for Weeding effect in post-emergence stage, Echinochloa crusgalli (level): fresh weight control rate level; for Weeding effect in post-emergence stage, Echinochloa crusgalli: level of fresh weight growth control rate
Outline: as §1

| SMILES | Weeding effect in post-emergence stage, Abutilon theophrasti (level) (Abutilon theophrasti; Dose 15 g/ha) | Weeding effect in post-emergence stage, Setaria viridis (level) (Setaria viridis; Dose 15 g/ha) | Weeding effect in post-emergence stage, Alopecurus japonicus (level) (Alopecurus japonicus; Dose 15 g/ha) | Weeding effect in post-emergence stage, Eleusine indica (level) (Eleusine indica; Dose 15 g/ha) | Weeding effect in post-emergence stage, Digitaria sanguinalis (level) (Digitaria sanguinalis; Dose 15 g/ha) | Weeding effect in post-emergence stage, Echinochloa crusgalli (level) (Echinochloa crusgalli; Dose 15 g/ha) | Weeding effect in post-emergence stage, Abutilon theophrasti (Abutilon theophrasti; Dose 15 g/ha) | Weeding effect in post-emergence stage, Setaria viridis (Setaria viridis; Dose 15 g/ha) | Weeding effect in post-emergence stage, Alopecurus japonicus (Alopecurus japonicus; Dose 15 g/ha) | Weeding effect in post-emergence stage, Eleusine indica (Eleusine indica; Dose 15 g/ha) | Weeding effect in post-emergence stage, Digitaria sanguinalis (Digitaria sanguinalis; Dose 15 g/ha) | Weeding effect in post-emergence stage, Echinochloa crusgalli (Echinochloa crusgalli; Dose 15 g/ha) | other results |
| --- | --- | --- | --- | --- | --- | --- | --- | --- | --- | --- | --- | --- | --- |
| C#CCCOC(=O)[C@@H](C)O/N=C/c1cc(-n2c(=O)cc(C(F)(F)F)n(C)c2=O)c(F)cc1Cl [442(R)] | 5 (Level 5: growth control rate is above 85%) | 5 (Level 5: growth control rate is above 85%) | 5 (Level 5: growth control rate is above 85%) | 5 (Level 5: growth control rate is above 85%) | 5 (Level 5: growth control rate is above 85%) | 5 (Level 5: growth control rate is above 85%) |  |  |  |  |  |  |  |
| C=CCCOC(=O)C(C)O/N=C/c1cc(-n2c(=O)cc(C(F)(F)F)n(C)c2=O)c(F)cc1Cl (racemic) [Compound 209] |  |  |  |  |  |  | 5 (Level 5: growth control rate is above 85%) | 5 (Level 5: growth control rate is above 85%) | 5 (Level 5: growth control rate is above 85%) | 5 (Level 5: growth control rate is above 85%) | 5 (Level 5: growth control rate is above 85%) | 5 (Level 5: growth control rate is above 85%) |  |
| CC(C#N)OC(=O)[C@@H](C)O/N=C/c1cc(-n2c(=O)cc(C(F)(F)F)n(C)c2=O)c(F)cc1Cl (stereo partly drawn) [443(R)] | 5 (Level 5: growth control rate is above 85%) | 5 (Level 5: growth control rate is above 85%) | 5 (Level 5: growth control rate is above 85%) | 5 (Level 5: growth control rate is above 85%) | 5 (Level 5: growth control rate is above 85%) | 5 (Level 5: growth control rate is above 85%) |  |  |  |  |  |  |  |
| CC(O/N=C/c1cc(-n2c(=O)cc(C(F)(F)F)n(C)c2=O)c(F)cc1Cl)C(=O)OCCO (racemic) [Compound 228] |  |  |  |  |  |  | 5 (Level 5: growth control rate is above 85%) | 5 (Level 5: growth control rate is above 85%) | 5 (Level 5: growth control rate is above 85%) | 5 (Level 5: growth control rate is above 85%) | 5 (Level 5: growth control rate is above 85%) | 5 (Level 5: growth control rate is above 85%) |  |
| C/C(=N/C(=O)[C@@H](C)O/N=C/c1cc(-n2c(=O)cc(C(F)(F)F)n(C)c2=O)c(F)cc1Cl)c1ccccc1 [453(R)] |  |  |  |  |  |  |  |  |  |  |  |  | Weeding effect in post-emergence stage, Abutilon theophrasti (level) (Abutilon theophrasti; Dose 30 g/ha): 5 (Level 5: growth control rate is above 85%); Weeding effect in post-emergence stage, Setaria viridis (level) (Setaria viridis; Dose 30 g/ha): 5 (Level 5: growth control rate is above 85%); Weeding effect in post-emergence stage, Alopecurus japonicus (level) (Alopecurus japonicus; Dose 30 g/ha): 5 (Level 5: growth control rate is above 85%); Weeding effect in post-emergence stage, Eleusine indica (level) (Eleusine indica; Dose 30 g/ha): 5 (Level 5: growth control rate is above 85%); Weeding effect in post-emergence stage, Digitaria sanguinalis (level) (Digitaria sanguinalis; Dose 30 g/ha): 5 (Level 5: growth control rate is above 85%); Weeding effect in post-emergence stage, Echinochloa crusgalli (level) (Echinochloa crusgalli; Dose 30 g/ha): 5 (Level 5: growth control rate is above 85%) |
